How the values were obtained:
[1] = tested on: human proximal tubule (HK-2) cells; assay: Superoxide concentration in LPS-treated cultured HK-2 cells measured by DHE-HPLC; format: cell-based; settings: LPS treated HK-2 cells, normalized to protein concentration, n=3 (FIG. 1)
Procedure: Superoxide concentration was normalized to protein concentration. Data represent mean and SEM.
Typically, cultured human proximal tubule (HK-2) cells were treated with LPS to induce superoxide free radical formation. The level of superoxide is indicated by the formation of 2-hydroxyethidium as described, for example by Zielonka et al., (2008) Nat. Protocols 3: 8-21, incorporated herein by reference in its entirety.

[2] = Tissue concentration quantified by ESR in mice after 48 hour intravenous infusion; format: in vivo; settings: kidney, ESR (FIG. 5F)
Source text: (§1) Data represent mean and SEM.

[3] = tested on: C57bl/6J mice, bilateral renal ischemia-reperfusion; assay: 30 minute bilateral renal ischemia-reperfusion in mice; format: in vivo; settings: for urinary albumin excretion: 24 hour urine, collected 48 hours following 30 minute bilateral renal ischemia-reperfusion (FIG. 2); for plasma creatinine levels: 48 hours following 30 minute bilateral renal ischemia-reperfusion (FIG. 3); for plasma blood urea nitrogen (BUN): 48 hours following 30 minutes bilateral renal ischemia-reperfusion (FIG. 4); for kidney superoxide (hydrocyanine-3 fluorescence, DHE-HPLC, nitrotyrosine staining): mouse kidney after 30 minutes renal ischemia (FIG. 6)
Procedure: Samples were collected 48 hours following 30 minute bilateral renal ischemia-reperfusion. Data represent mean and SEM.
as §1
BUN was measured 48 hours following 30 minutes bilateral renal ischemia-reperfusion. Data represent mean and SEM.
The effects of the Folate-TEMPOL conjugate of the present disclosure on renal ischemic-reperfusion injury prevention were observed by intravenously administering TEMPOL or Folate-TEMPOL. The renal artery was then clamped for about 30 mins, followed by 48 hours of reperfusion. Parameters measured as indicators of renal tubule injury included creatinine, BUN, and albumin levels both before and after ischemia. Also measured were the TEMPOL and Folate-TEMPOL concentrations in the plasma and the kidney.

[4] = tested on: human proximal tubule (HK-2) cells; assay: Uptake into HK-2 cells quantified by electron spin resonance (ESR); format: cell-based; settings: after incubation with HK-2 cells, ESR (FIG. 5D, 5E)
[5] = listed as Folate-TEMPOL conjugate

Row | SMILES | superoxide concentration in cultured HK-2 cells [1] | superoxide concentration in cultured HK-2 cells ([1]; listed as Folate-TEMPOL) | tissue tempol and tempol-folate concentration [2] | urinary albumin excretion [3] | urinary albumin excretion [3, 5] | plasma creatinine levels [3] | plasma creatinine levels [3, 5] | plasma blood urea nitrogen (BUN) [3] | plasma blood urea nitrogen (BUN) [3, 5] | renal structure, hematoxylin and eosin (H&E) staining of kidney sections ([3]; kidney sections harvested 48 hours post-ischemia (FIG. 7)) | kidney superoxide (hydrocyanine-3 fluorescence, DHE-HPLC, nitrotyrosine staining) [3] | kidney superoxide (hydrocyanine-3 fluorescence, DHE-HPLC, nitrotyrosine staining) [3, 5] | HK-2 cell concentration of tempol and tempol-folate [4] | HK-2 cell concentration of tempol and tempol-folate ([4]; listed as Folate-TEMPOL)
1 | CC1(C)CC(O)CC(C)(C)N1[O] [Tempol, 4-hydroxy-2,2,6,6-tetramethylpiperidine 1-oxyl] | effectively scavenged superoxide production | – | – | – | – | – | – | – | – | – | – | – | – | –
2 | CC1(C)CC(NC(=O)CCC(NC(=O)c2ccc(NCc3cnc4nc(N)nc(O)c4n3)cc2)C(=O)O)CC(C)(C)N1[O] (stereo not drawn) [tempol-folate] | effectively scavenged superoxide production | inhibits superoxide as efficiently as TEMPOL alone | becomes more concentrated in cultured proximal tubule cells and in vivo in kidneys of mice compared with tempol | prevents kidney injury more effectively than free tempol | the reduction was greater than if TEMPOL alone was used | preserves glomerular filtration rate from ischemia-reperfusion more effectively than unconjugated tempol | the reduction was greater than if TEMPOL alone was used | proximal tubule function is protected from ischemic injury by tempol-folate compared with free tempol | the reduction was greater than if TEMPOL alone was used | renal structure is protected from renal ischemia-reperfusion injury by tempol-folate treatment more efficiently than by ternpol treatment | more effective at scavenging superoxide in the kidney | significantly reduced | becomes more concentrated in cultured proximal tubule cells | accumulates in cultured proximal tubule cells to a greater extent than un-conjugated Tempol

From patent US8815860B2, “Methods for preventing oxidative stress injury of a tissue by a Folate-TEMPOL conjugate” (Emory University, priority 2009, dated 2014)
